According to PubChem BioAssay (NCI):
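Assay format: 96-well plates, 48-hour exposure. GI50 marks 50% less growth. The concentration for full growth arrest is given as TGI.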

Experiments:
Experiment in all cases: NCI tumour cell line growth inhibition, 48 h
PC-3 prostate = tested on: PC-3 prostate
CAKI-1 renal = tested on: CAKI-1 renal
HOP-92 NSCLC = tested on: HOP-92 NSCLC
HCT-116 colon = tested on: HCT-116 colon
RPMI-8226 leukemia = tested on: RPMI-8226 leukemia
SN12C renal = tested on: SN12C renal
HL-60(TB) leukemia = tested on: HL-60(TB) leukemia
SF-539 CNS = tested on: SF-539 CNS
ACHN renal = tested on: ACHN renal
BT-549 breast = tested on: BT-549 breast
SNB-19 CNS = tested on: SNB-19 CNS
KM12 colon = tested on: KM12 colon
TK-10 renal = tested on: TK-10 renal
M14 melanoma = tested on: M14 melanoma
UACC-257 melanoma = tested on: UACC-257 melanoma
SF-268 CNS = tested on: SF-268 CNS
SNB-75 CNS = tested on: SNB-75 CNS
SF-295 CNS = tested on: SF-295 CNS
OVCAR-5 ovarian = tested on: OVCAR-5 ovarian
HS 578T breast = tested on: HS 578T breast
OVCAR-3 ovarian = tested on: OVCAR-3 ovarian
T-47D breast = tested on: T-47D breast
MOLT-4 leukemia = tested on: MOLT-4 leukemia
EKVX NSCLC = tested on: EKVX NSCLC
NCI-H522 lung = tested on: NCI-H522 lung
HT29 colon = tested on: HT29 colon
SK-MEL-5 melanoma = tested on: SK-MEL-5 melanoma
SK-OV-3 ovarian = tested on: SK-OV-3 ovarian
DU-145 prostate = tested on: DU-145 prostate
SK-MEL-28 melanoma = tested on: SK-MEL-28 melanoma
LOX IMVI melanoma = tested on: LOX IMVI melanoma
OVCAR-4 ovarian = tested on: OVCAR-4 ovarian
RXF 393 renal = tested on: RXF 393 renal
IGROV1 ovarian = tested on: IGROV1 ovarian
MCF7 breast = tested on: MCF7 breast
HCC-2998 colon = tested on: HCC-2998 colon
NCI-H460 lung = tested on: NCI-H460 lung
MDA-MB-435 = tested on: MDA-MB-435
CCRF-CEM leukemia = tested on: CCRF-CEM leukemia
A549 NSCLC = tested on: A549 NSCLC
MDA-MB-231 breast = tested on: MDA-MB-231 breast
COLO 205 colon = tested on: COLO 205 colon
UO-31 renal = tested on: UO-31 renal
SW-620 colon = tested on: SW-620 colon
UACC-62 melanoma = tested on: UACC-62 melanoma
NCI/ADR-RES ovarian = tested on: NCI/ADR-RES ovarian
786-0 renal = tested on: 786-0 renal
NCI-H226 lung = tested on: NCI-H226 lung
OVCAR-8 ovarian = tested on: OVCAR-8 ovarian
HCT-15 colon = tested on: HCT-15 colon
A498 renal = tested on: A498 renal
K-562 leukemia = tested on: K-562 leukemia
SR leukemia = tested on: SR leukemia
HOP-62 NSCLC = tested on: HOP-62 NSCLC
U251 CNS = tested on: U251 CNS
SK-MEL-2 melanoma = tested on: SK-MEL-2 melanoma

## COc1ccc(C2SCC(=O)N2NC(=O)C(O)c2ccccc2)cc1OC (configuration not stated)
PC-3 prostate
  GI50: > 100 µM
  TGI: > 100 µM
CAKI-1 renal
  GI50: > 100 µM
  TGI: > 100 µM
HOP-92 NSCLC
  GI50: > 100 µM
  TGI: > 100 µM
HCT-116 colon
  GI50: > 100 µM
  TGI: > 100 µM
RPMI-8226 leukemia
  GI50: > 100 µM
  TGI: > 100 µM
SN12C renal
  GI50: > 100 µM
  TGI: > 100 µM
HL-60(TB) leukemia
  GI50: > 100 µM
  TGI: > 100 µM
SF-539 CNS
  GI50: > 100 µM
  TGI: > 100 µM
ACHN renal
  GI50: > 100 µM
  TGI: > 100 µM
BT-549 breast
  GI50: > 100 µM
  TGI: > 100 µM
SNB-19 CNS
  GI50: > 100 µM
  TGI: > 100 µM
KM12 colon
  GI50: > 100 µM
  TGI: > 100 µM
TK-10 renal
  GI50: > 100 µM
  TGI: > 100 µM
M14 melanoma
  GI50: > 100 µM
  TGI: > 100 µM
UACC-257 melanoma
  GI50: > 100 µM
  TGI: > 100 µM
SF-268 CNS
  GI50: > 100 µM
  TGI: > 100 µM
SNB-75 CNS
  GI50: > 100 µM
  TGI: > 100 µM
SF-295 CNS
  GI50: > 100 µM
  TGI: > 100 µM
OVCAR-5 ovarian
  GI50: > 100 µM
  TGI: > 100 µM
HS 578T breast
  GI50: > 100 µM
  TGI: > 100 µM
OVCAR-3 ovarian
  GI50: > 100 µM
  TGI: > 100 µM
T-47D breast
  GI50: > 100 µM
  TGI: > 100 µM
MOLT-4 leukemia
  GI50: > 100 µM
  TGI: > 100 µM
EKVX NSCLC
  GI50: > 100 µM
  TGI: > 100 µM
NCI-H522 lung
  GI50: > 100 µM
  TGI: > 100 µM
HT29 colon
  GI50: > 100 µM
  TGI: > 100 µM
SK-MEL-5 melanoma
  GI50: > 100 µM
  TGI: > 100 µM
SK-OV-3 ovarian
  GI50: > 100 µM
  TGI: > 100 µM
DU-145 prostate
  GI50: > 100 µM
  TGI: > 100 µM
SK-MEL-28 melanoma
  GI50: > 100 µM
  TGI: > 100 µM
LOX IMVI melanoma
  GI50: > 100 µM
  TGI: > 100 µM
OVCAR-4 ovarian
  GI50: > 100 µM
  TGI: > 100 µM
RXF 393 renal
  GI50: > 100 µM
  TGI: > 100 µM
IGROV1 ovarian
  GI50: > 100 µM
  TGI: > 100 µM
MCF7 breast
  GI50: > 100 µM
  TGI: > 100 µM
HCC-2998 colon
  GI50: > 100 µM
  TGI: > 100 µM
NCI-H460 lung
  GI50: > 100 µM
  TGI: > 100 µM
MDA-MB-435
  GI50: > 100 µM
  TGI: > 100 µM
CCRF-CEM leukemia
  GI50: > 100 µM
  TGI: > 100 µM
A549 NSCLC
  GI50: > 100 µM
  TGI: > 100 µM
MDA-MB-231 breast
  GI50: > 100 µM
  TGI: > 100 µM
COLO 205 colon
  GI50: > 100 µM
  TGI: > 100 µM
UO-31 renal
  GI50: > 100 µM
  TGI: > 100 µM
SW-620 colon
  GI50: > 100 µM
  TGI: > 100 µM
UACC-62 melanoma
  GI50: > 100 µM
  TGI: > 100 µM
NCI/ADR-RES ovarian
  GI50: > 100 µM
  TGI: > 100 µM
786-0 renal
  GI50: > 100 µM
  TGI: > 100 µM
NCI-H226 lung
  GI50: > 100 µM
  TGI: > 100 µM
OVCAR-8 ovarian
  GI50: > 100 µM
  TGI: > 100 µM
HCT-15 colon
  GI50: > 100 µM
  TGI: > 100 µM
A498 renal
  GI50: > 100 µM
  TGI: > 100 µM
K-562 leukemia
  GI50: > 100 µM
  TGI: > 100 µM
SR leukemia
  GI50: 40.9 µM
  TGI: > 100 µM
HOP-62 NSCLC
  GI50: > 100 µM
  TGI: > 100 µM
U251 CNS
  GI50: > 100 µM
  TGI: > 100 µM
SK-MEL-2 melanoma
  GI50: > 100 µM
  TGI: > 100 µM
